Test results published in patent publication US9289503B2, “Fatty acid fumarate derivatives and their uses” (Catabasis Pharmaceuticals, Inc., priority 2010, dated 2016).
Where a name gives a salt, the structure may show the parent alone.

Experiments:
Type in all cases: cell-based
NF-κB = NF-κB luciferase reporter assay in RAW 264.7 macrophages; settings: RAW 264.7 cells with 3× NFκB response element luciferase reporter, 2 hour pretreatment, 200 ng/ml LPS for 3 hours; for IC50: Mus musculus, RAW264.7, read-out: NF-kB inhibitory activity
Procedure: RAW 264.7 cells stably expressing a 3× NFκB response elemement-drive luciferase reporter were seeded into 96 well plates in sera-free medium (Optimem) 18 hours prior to compound application. Compounds of the invention were prepared by first making […] stock solutions in EtOH. Stock solutions were then diluted 1:100 in low LPS FBS (Gemini BenchMark 100-106), mixed vigorously and allowed to incubate at room temperature for 30 minutes, 1:2 serial dilutions were then made in FBS supplemented with 1% EtOH, mixed vigorously, and again allowed to incubate at room temperature for 30 minutes before adding to RAW 264.7 reporter cells (final concentrations: 10% FBS, 100 uM highest compound dilution, 0.1% EtOH) for a 2 hour pretreatment prior to stimulation with LPS. Cells were then stimulated with 200 ng/ml LPS or vehicle control for 3 hours in the presence of the compounds of the invention. A set of six vehicles was left unstimulated with LPS in order to measure the assay floor. AlamarBlue viability dye (Invitrogen) was added to cells simultaneously with the delivery of LPS (final AlamarBlue concentration of 10%). After the 3 h incubation period with LPS, cell viability was measured by reading fluorescence (excitation 550 nm, emission 595 nm) with a Perkin Elmer Victor V plate reader. Then cell media was aspirated from each well. Luciferase signal was then developed by addition of the Britelite Plus reagent (Perkin Elmer). Luciferase activity was measured with the Perkin Elmer Victor V plate reader. NF-κB activity was expressed as a percent of the vehicle control wells (stimulated with LPS). Compounds were tested at 6 dose point titrations in triplicate to determine IC50 values.
Table 1 summarizes the IC50 values for a number of fatty acid fumarate conjugates in this NF-κB luciferase reporter assay. In this table, MMF=mono methyl fumarate.

IL-1β = IL-1β gene expression in LPS-stimulated RAW264.7 macrophages; settings: RAW264.7; 50 μM and 100 μM; FIG. 4
Procedure: RAW264.7 macrophages were seeded at a density of 100,000 cells/well in a 96-well plate in DMEM supplemented with 10% FBS and Penn/strep. 16 hours later, medium was aspirated and replaced with 90 μl/well of serum-free DMEM. A fatty acid fumarate conjugate, DHA and monomethyl-fumarate (MMF) were brought up in 100% EtOH to a concentration of 100 mM and then diluted 1:100 in 100% FBS for a stock solution consisting of 1 mM compound and 1% EtOH. these stock solutions were then diluted 1:10 in FBS supplemented with 1% EtOH to generate a 100 μM of a fatty acid fumarate conjugate and 100 μM each of DHA and MMF. 10 μl was then added to the RAW246.7 cells to generate final concentrations 10 μM of the fatty acid fumarate conjugate or 10 μM each DHA and MMF, along with vehicle only control. […] IL-1β and TNF-α transcript levels were then measured using Taqman primer/probe assay sets (Applied Biosystems), normalized to GAPDH using the deltaCt method, and the data expressed relative to vehicle only control. […]
RAW264.7 macrophages are seeded at a density of 100,000 cells/well in a 96-well plate in DMEM supplemented with 10% FBS and Penn/strep. […] Transcript levels are then measured using ABI Taqman primer/probe assay kits, normalized to GAPDH using the deltaCt method, and the data expressed relative to vehicle only control.

Hmox1 = Hmox1 target gene expression in RAW264.7 macrophages; settings: RAW264.7; 50 μM and 100 μM; FIG. 4
Procedure: RAW264.7 macrophages are seeded at a density of 100,000 cells/well in a 96-well plate in DMEM supplemented with 10% FBS and Penn/strep. 16 hours later, medium is aspirated and replaced with 90 μl/well of serum-free DMEM. A fatty acid fumarate conjugate, DHA and EPA are brought up in 100% EtOH to a concentration of 100 mM and then diluted 1:100 In 100% FBS for a 20× stock solution consisting of 1 mM compound and 1% EtOH. The fatty acid fumarate conjugate 20× stock solutions are diluted 1:2 in FBS supplemented with 1% EtOH for a 500 uM 10× stock solution, whereas equal volumes of the DHA and EPA 20× stock solutions are mixed to create a 10× stock solution containing 500 μm each of DHA and EPA. […] The compounds are allowed to pre-incubate for 2 hours before stimulation of 100 ng/ml LPS (10 μl of 1 μg/ml LPS is added to each well). Following 3 hours of LPS stimulation, cells are washed once in 1× PBS, aspirated dry, and flash frozen in liquid nitrogen. RNA is then isolated and converted to cDNA using the Cells to cDNA kit (Ambion) according to the manufacturer's protocol. Transcript levels are then measured using ABI Taqman primer/probe assay kits, normalized to GAPDH using the deltaCt method, and the data expressed relative to vehicle only control.

NF-kB inhibitory activity (NF-κB)	IC50 (NF-κB) [µM]	Structure (SMILES)	other results
+ +		CC/C=C\C/C=C\C/C=C\C/C=C\C/C=C\C/C=C\CCC(=O)NCCOCCNC(=O)/C=C/C(=O)OC [Compound I-3, (E)-methyl 4-(2-(2-(4Z,7Z,10Z,13Z,16Z,19Z)-docosa-4,7,10,13,16,19-hexaenamidoethoxy)ethylamino)-4-oxobut-2-enoate]	
+ +		CC/C=C\C/C=C\C/C=C\C/C=C\C/C=C\C/C=C\CCC(=O)NCCN(C)CCNC(=O)/C=C/C(=O)OC [Compound I-4, (E)-methyl 4-(2-((2-(4Z,7Z,10Z,13Z,16Z,19Z)-docosa-4,7,10,13,16,19-hexaenamidoethyl)(methyl)amino)ethylamino)-4-oxobut-2-enoate]	
	50 to 200	CC/C=C\C/C=C\C/C=C\C/C=C\C/C=C\C/C=C\CCC(=O)NCCSSCCNC(=O)/C=C/C(=O)OC [Compound I-5, (E)-methyl 4-(2-(2-(2-(4Z,7Z,10Z,13Z,16Z,19Z)-docosa-4,7,10,13,16,19-hexaenamidoethyl)disulfanyl)ethylamino)-4-oxobut-2-enoate]	
+ +		CC/C=C\C/C=C\C/C=C\C/C=C\C/C=C\C/C=C\CCC(=O)NCCCC[C@H](NC(=O)/C=C/C(=O)OC)C(=O)OC [Compound I-6, (S)-methyl 6-((4Z,7Z,10Z,13Z,16Z,19Z)-docosa-4,7,10,13,16,19-hexaneamido)-2-((E)-4-methoxy-4-oxobut-2-enamido)hexanoate]	
+ +		CC/C=C\C/C=C\C/C=C\C/C=C\C/C=C\C/C=C\CCC(=O)NCC(C)(C)NC(=O)/C=C/C(=O)OC [Compound I-22]	
	50 to 200	CC/C=C\C/C=C\C/C=C\C/C=C\C/C=C\C/C=C\CCC(=O)NCCN1C(=O)CC(SC[C@H](NC(=O)/C=C/C(=O)OC)C(=O)OC)C1=O (stereo partly drawn) [Compound I-39, (E)-methyl 4-((R)-3-(1-(2-(4Z,7Z,10Z,13Z,16Z,19Z)-docosa-4,7,10,13,16,19-hexaenamidoethyl)-2,5-dioxopyrrolidin-3-ylthio)-1-methoxy-1-oxopropan-2-ylamino)-4-oxobut-2-enoate]	
+ +		CC/C=C\C/C=C\C/C=C\C/C=C\C/C=C\C/C=C\CCC(=O)N1CCN(C(=O)/C=C/C(=O)OC)CC1 [Compound I-40, (E)-methyl 4-(4-(4Z,7Z,10Z,13Z,16Z,19Z)-docosa-4,7,10,13,16,19-hexaenoylpiperazin-1-yl)-4-oxobut-2-enoate]	
	50 to 200	CC/C=C\C/C=C\C/C=C\C/C=C\C/C=C\C/C=C\CCC(=O)N1C[C@@H](C)N(C(=O)/C=C/C(=O)OC)[C@@H](C)C1 [Compound I-41, (E)-methyl 4-((2R,6S)-4-((4Z,7Z,10Z,13Z,16Z,19Z)-docosa-4,7,10,13,16,19-hexaenoyl)-2,6-dimethylpiperazin-1-yl)-4-oxobut-2-enoate]	
+ +		CC/C=C\C/C=C\C/C=C\C/C=C\C/C=C\C/C=C\CCC(=O)NCCNC(=O)/C=C/C(=O)OC [Compound I-67]	
	≥ 100	CC/C=C\C/C=C\C/C=C\C/C=C\C/C=C\C/C=C\CCC(=O)NCCNC(=O)/C=C/C(=O)O [Compound I-102, (E)-4-(2-(4Z,7Z,10Z,13Z,16Z,19Z)-docosa-4,7,10,13,16,19-hexaenamidoethylamino)-4-oxobut-2-enoic acid]	
	≥ 100	CC/C=C\C/C=C\C/C=C\C/C=C\C/C=C\C/C=C\CCC(=O)N(C)CCN(C)C(=O)/C=C/C(=O)OC [Compound I-104, (E)-methyl 4-(methyl(2-((4Z,7Z,10Z,13Z,16Z,19Z)-N-methyldocosa-4,7,10,13,16,19-hexaenamido)ethyl)amino)-4-oxobut-2-enoate]	
		COC(=O)/C=C/C(=O)NCCNC(=O)CCCC[C@@H]1CCSS1 [Compound I-105, (R,E)-methyl 4-(2-(5-(1,2-dithiolan-3-yl)pentanamido)ethylamino)-4-oxobut-2-enoate]	effect on IL-1β target gene expression (IL-1β): positive effect; effect on the target gene Hmox1 (Hmox1): positive effect
	≥ 100	COC(=O)/C=C/C(=O)O [MMF, mono methyl fumarate, reference compound]	

Structure (SMILES)	NF-kB inhibitory activity (NF-κB)	IC50 (NF-κB) [µM]	other results
CC/C=C\C/C=C\C/C=C\C/C=C\C/C=C\CCCC(=O)NCCNC(=O)/C=C/C(=O)OC [Compound I-2, (E)-methyl 4-(2-(5Z,8Z,11Z,14Z,17Z) -eicosa-5,8,11,14,17-pentaenamidoethylamino)-4-oxobut-2-enoate]	+ +		
CC/C=C\C/C=C\C/C=C\C/C=C\C/C=C\C/C=C\CCC(=O)NCCNC(=O)/C=C/C(=O)OCC [Compound I-66, (E)-ethyl 4-(2-(4Z,7Z,10Z,13Z,16Z,19Z)-docosa-4,7,10,13,16,19-hexaenamidoethylamino)-4-oxobut-2-enoate]		50 to 200	
CC/C=C\C/C=C\C/C=C\C/C=C\C/C=C\CCCC(=O)N[C@@H](CCCCNC(=O)/C=C/C(=O)OC)C(=O)O [Compound I-72, (S)-2-((5Z,8Z,11Z,14Z,17Z)-icosa-5,8,11,14,17-pentaenamido)-6-((E)-4-methoxy-4-oxobut-2-enamido)hexanoic acid]		50 to 200	
CC/C=C\C/C=C\C/C=C\C/C=C\C/C=C\C/C=C\CCC(=O)NCCOC(=O)/C=C/C(=O)OC [Compound I-103, 2-(4Z,7Z,10Z,13Z,16Z,19Z)-docosa-4,7,10,13,16,19-hexaenamidoethyl methyl fumarate]		50 to 200	
